Article PMC5494963 (Chemical research in toxicology, 2011)

Target: cytochrome c oxidase (complex IV) (Bos taurus, UniProt P00396)
Assay: spectrophotometric ferrocytochrome c oxidation at […] nm
Assay type: biochemical

In the case of S [sulfide], the Ki is reported as 85 nM.
